In patent publication US20140050778A1, “NUCLEIC ACID BINDING COMPOUNDS, METHODS OF MAKING, AND USE THEREOF” (UNIVERSITY OF ROCHESTER, priority 2010, published 2014):
Read-outs that look alike come from different tables or passages of the source.

How the values were obtained:
Assay in all cases: SPR binding to immobilized biotinylated RNA
[1] = tested on: (CCUG)10 RNA (SEQ ID NO: 4); details: for Residence time (t1/2) for compound binding to RNA / Off-rates (koff) / On-rates (kon): (CCUG)10
Experimental: (§1) SPR binding measurements were performed on a Biacore-X instrument (Biacore, Inc., Uppsala, Sweden) with two flow channels (FC1 and FC2). 5′-Biotinylated-RNA sequences, with a C6 linker separating the biotin label from the RNA (Integrated DNA Technologies Inc.) were immobilized on streptavidin (Rockland Immunochemicals) functionalized carboxylmethyl dextran coated sensor chips (CM5, G.E. Healthcare) using EDC/NHS (Advanced ChemTech) coupling chemistry. Filtered (0.2μ), degassed and autoclaved HBS-N buffer (0.01M Hepes, pH=7.4, 0.15 M NaCl) was employed as sample and as running buffer for all SPR experiments. A typical protocol for an experiment is as follows: A CM5 sensor chip was allowed to equilibrate to room temperature and then docked into the instrument. Following priming with running buffer, FC1 and FC2 were conditioned by manual injection of 20 μL aqueous NaOH (50 mM) at a flow rate of 30 μL/min. This was repeated 3 times followed by a wash command. Next, the carboxyl groups on the sensor chip surface in both flow cells were activated separately by injecting 60 μL of freshly prepared 1:1 mixture of EDC (0.4 M) and NHS (0.1 M) at a 5 μL/min flow rate followed by a wash. […] After washing, the surface was deactivated with 60 μL injection of ethanolamine (1M, pH=8.5) at 5 μL/min. The flow cells were primed, and the streptavidin surface in FC1 alone was blocked with 30 μL of biotin (20 μM in HBS-N) at 5 μL/min. The RNA (200 nM in running buffer, HBS-N) to be immobilized was unfolded by heating above its predicted melting temperature in a heated block for 2 min and then allowed to refold by cooling gradually to room temperature. The RNA was then immobilized in FC2 alone to response units ranging from 200-1000 RU using a 5 μL/min flow rate. Representative sensorgrams for the immobilization procedure is shown in FIGS. 2A-B. Two 20 μL aliquots of NaCl (0.5 M) were injected at a 30 μL/min flow rate to remove non-specifically bound RNA. The level of RNA immobilized was noted when the baseline was stable, usually after repeated buffer injection followed by a “prime” command. Binding measurements were performed by flowing various concentrations of the compounds to be analyzed over the immobilized RNA and recording the reference-subtracted (FC2−FC1) sensorgrams. For kinetic analysis, at least five sensorgrams corresponding to different concentrations of compound (usually ranging from 0.05-1 μM in HBS-N) were obtained using flow rates of either 60 μL/min or 30 μL/min. The experimental sensorgrams were globally fitted to a 1:1 binding equation (Biaevaluation software) to obtain association rates (ka) and dissociation rates ([…]) as well as equilibrium binding constants (KD). To measure the binding stoichiometry (n), the relations in equations (1-3) below were used: […]
(§2) where RUmax is the maximum resonance response unit at saturation, RURNA is the amount RU of RNA immobilized, n is the stoichiometry, MWcompound and MWRNA are molecular weights of compound and RNA respectively, and RUeq represents the resonance response at steady-state (equilibrium). The response units at equilibrium were subjected to Scatchard binding plots of (r/Cfree vs. r).
(§3) The binding characteristics of compounds 3-11 were evaluated against pathogenic CUG^exp RNA and other RNA sequences by SPR. This technique allows the association and dissociation rates (ka and kd), equilibrium binding constants (KD), and the binding stoichiometry (n) to be measured in a label-free format (Liu and Wilson, “Quantitative Analysis of Small Molecule-nucleic Acid Interactions with a Biosensor Surface and Surface Plasmon Resonance Detection,” Methods Mol. Biol. 613:1-23 (2010), which is hereby incorporated by reference in its entirety). […]

[2] = tested on: (CUG)10 RNA (SEQ ID NO: 3); details: for Residence time (t1/2) for compound binding to RNA / Off-rates (koff) / On-rates (kon) / Kd / apparent KD / ka / kd: (CUG)10; for sequence selectivity: CUG repeats versus other RNAs
Experimental: as §1, §2
This technique allows the association and dissociation rates (ka and kd), equilibrium binding constants (KD), and the binding stoichiometry (n) to be measured in a label-free format (Liu and Wilson, “Quantitative Analysis of Small Molecule-nucleic Acid Interactions with a Biosensor Surface and Surface Plasmon Resonance Detection,” Methods Mol. Biol. 613:1-23 (2010), which is hereby incorporated by reference in its entirety).

[3] = tested on: (CAG)10 RNA (SEQ ID NO: 5); details: for Off-rates (koff) / On-rates (kon): SPR
Experimental: as §1, §2, §3

[4] = tested on: CUG-CAG duplex ("Duplex") (SEQ ID NO: 6); details: Duplex
Experimental: as §1, §2, §3

[5] = tested on: HIV-1 FSS RNA (SEQ ID NO: 7)
Experimental: as §1
as §2, with “r). […]” for “r).”
SPR and fluorescence titration experiments, performed using the protocol described in Examples 3 and 4 above, except using as the target a highly conserved RNA sequence responsible for regulating the production of the Gag-Pol polyprotein via a −1 ribosomal frameshift, which occurs along a “slippery sequence” in gag-pol mRNA (SEQ ID NO: 7). This “frameshift stimulatory sequence” (or “HIV-1 FSS”) consists of an upper stemloop and a lower stem, separated by a purine bulge in the most common types of HIV (FIG. 19). For the fluorescent titration experiments, the upper stemloop of SEQ ID NO: 7 was employed. Cell uptake and toxicity studies were carried out using human fibroblasts according to Example 5 above.

[6] = tested on: (CUG)2 RNA (SEQ ID NO: 1); details: Table 7, SPR
Experimental: as §1, §2, §3

Molecule | Residence time (t1/2) for compound binding to RNA [1] [s] | Off-rates (koff) ([1]; SPR) [s⁻¹] | On-rates (kon) ([1]; SPR) [M⁻¹ s⁻¹] | Residence time (t1/2) for compound binding to RNA [2] [s] | Off-rates (koff) ([2]; SPR) [s⁻¹] | On-rates (kon) ([2]; SPR) [M⁻¹ s⁻¹] | ka ([2]; Table 7, SPR) | kd ([2]; Table 7, SPR) | Kd ([2]; Table 7, SPR, read-out: KD) [nM] | other results
Neomycin [reference compound] | 3.55 | 0.195 | 109000 | 13.70 | 0.0507 | 125000 |  |  |  | Kd ([1]; SPR, (CCUG)10, running text, read-out: apparent KD): 1960 ± 714 nM; Kd ([2]; SPR, read-out: apparent KD): 409.6 ± 0.89 nM
CCc1nc2cc3ccccc3cc2cc1C(=O)N[C@@H](CCCCN)C(=O)N[C@@H](C/C=C\C[C@H](NC(=O)[C@H](CCCCN)NC(=O)c1cc2cc3ccccc3cc2nc1CC)C(=O)N1CCC[C@H]1C(=O)NCCCN)C(=O)N1CCC[C@H]1C(=O)NCCCN [Compound 8] | 152.98 | 0.00453 | 15400 | 228.71 | 0.00303 | 24600 |  |  |  | Residence time (t1/2) for compound binding to RNA [3]: 116.86 s; Off-rates (koff) [3]: 0.00593 s⁻¹; On-rates (kon) [3]: 12600 M⁻¹ s⁻¹; Residence time (t1/2) for compound binding to RNA [4]: 255.72 s; Off-rates (koff) ([4]; SPR): 0.00271 s⁻¹; On-rates (kon) ([4]; SPR): 29000 M⁻¹ s⁻¹; apparent KD ([2]; SPR): reduced affinity; sequence selectivity ([2]; SPR): no selectivity for CUG or CCUG repeats relative to duplex CUG-CAG or HIV-1 FSS RNAs
CCc1nc2cc3ccccc3cc2cc1C(=O)N1CCC[C@H]1C(=O)N[C@@H](C/C=C/C[C@H](NC(=O)[C@@H]1CCCN1C(=O)c1cc2cc3ccccc3cc2nc1CC)C(=O)N(C)[C@@H](CCCCN)C(=O)NCCCN)C(=O)N(C)[C@@H](CCCCN)C(=O)NCCCN [20 (E)] |  |  |  |  |  |  | ka = 1.8 ± 0.9E+4/M * s | kd = 1.4 ± 0.6E−3/s | 83 | 
NCCCC[C@H](NC(=O)[C@H](C/C=C\C[C@H](NC(=O)[C@@H]1CCCN1)C(=O)N[C@@H](CCCCN)C(=O)NCCCN)NC(=O)[C@@H]1CCCN1)C(=O)NCCCN [Compound 6] | 2.32 | 0.299 | 13600 | 19.91 | 0.0348 | 132000 |  |  |  | Residence time (t1/2) for compound binding to RNA [3]: 36.09 s; Off-rates (koff) [3]: 0.0192 s⁻¹; On-rates (kon) [3]: 125000 M⁻¹ s⁻¹; Residence time (t1/2) for compound binding to RNA [5]: 26.96 s; Off-rates (koff) ([5]; SPR): 0.0257 s⁻¹; On-rates (kon) ([5]; SPR): 221000 M⁻¹ s⁻¹; apparent KD ([2]; SPR): modest affinity; sequence selectivity ([2]; SPR): neither displayed any selectivity
CCc1nc2cc3ccccc3cc2cc1C(=O)N1CCC[C@H]1C(=O)N(C)[C@@H](C/C=C\C[C@@H](C(=O)N(C)[C@@H](CCCCN)C(=O)NCCCN)N(C)C(=O)[C@@H]1CCCN1C(=O)c1cc2cc3ccccc3cc2nc1CC)C(=O)N(C)[C@@H](CCCCN)C(=O)NCCCN [22 (Z)] |  |  |  |  |  |  | ka = 9.2 ± 0.4E+3/M * s | kd = 3 ± 2E−3/s | 378 | 
CCc1nc2cc3ccccc3cc2cc1C(=O)N[C@@H](C/C=C\C[C@H](NC(=O)c1cc2cc3ccccc3cc2nc1CC)C(=O)N1CCC[C@H]1C(=O)N[C@@H](Cc1ccccc1)C(=O)NCCCN)C(=O)N1CCC[C@H]1C(=O)N[C@@H](Cc1ccccc1)C(=O)NCCCN [Compound 19] |  |  |  |  |  |  |  |  |  | Kd ([5]; SPR, read-out: apparent KD): 102 ± 0.021 nM
CCc1nc2cc3ccccc3cc2cc1C(=O)N1CCC[C@H]1C(=O)N(C)[C@@H](C/C=C/C[C@@H](C(=O)N(C)[C@@H](CCCCN)C(=O)NCCCN)N(C)C(=O)[C@@H]1CCCN1C(=O)c1cc2cc3ccccc3cc2nc1CC)C(=O)N(C)[C@@H](CCCCN)C(=O)NCCCN [22 (E)] |  |  |  |  |  |  | bka = 1.2 ± 0.3E+4/M * s | kd = 8.7 ± 0.3E−4/s | 72 | ka [6]: ka = 1.9 ± 0.4E+4/M * s; kd [6]: kd = 8 ± 4E−4/s
CCc1nc2cc3ccccc3cc2cc1C(=O)N1CCC[C@H]1C(=O)N(C)[C@@H](C/C=C\C[C@@H](C(=O)N[C@@H](CCCCN)C(=O)NCCCN)N(C)C(=O)[C@@H]1CCCN1C(=O)c1cc2cc3ccccc3cc2nc1CC)C(=O)N[C@@H](CCCCN)C(=O)NCCCN [21 (Z)] |  |  |  |  |  |  | ka = 1.6 ± 0.3E+4/M * s | kd = 1.6 ± 0.1E−3/s | 102 | 
